According to ChEMBL document CHEMBL1126743, “New pyridobenzodiazepine derivatives as potential antipsychotics: synthesis and neurochemical study” (J Med Chem, 1993):
The source made the active and inactive calls. The calls are words filed in the database; no cut-off is given here.

Legend:
Rattus norvegicus [1] = assay: In vivo inhibition of apomorphine-mediated stereotypy in rats administered subcutaneously at 20 mg/kg expressed as percent inhibition; format: functional; conditions: sc, route subcutaneous
[2] = molecular target: Serotonin 2 (5-HT2) receptor (Rattus norvegicus, UniProt P30994+P08909+P14842)
Description: In vitro binding affinity against rat 5-hydroxytryptamine 2 receptor.

[3] = molecular target: Muscarinic acetylcholine receptor
Description: In vitro binding affinity against Muscarinic acetylcholine receptors in rat brain.

D(1A) dopamine receptor = D(1A) dopamine receptor (Rattus norvegicus, UniProt P18901); assay: biochemical
Chain of D(1A) dopamine receptor (P18901 whole entry): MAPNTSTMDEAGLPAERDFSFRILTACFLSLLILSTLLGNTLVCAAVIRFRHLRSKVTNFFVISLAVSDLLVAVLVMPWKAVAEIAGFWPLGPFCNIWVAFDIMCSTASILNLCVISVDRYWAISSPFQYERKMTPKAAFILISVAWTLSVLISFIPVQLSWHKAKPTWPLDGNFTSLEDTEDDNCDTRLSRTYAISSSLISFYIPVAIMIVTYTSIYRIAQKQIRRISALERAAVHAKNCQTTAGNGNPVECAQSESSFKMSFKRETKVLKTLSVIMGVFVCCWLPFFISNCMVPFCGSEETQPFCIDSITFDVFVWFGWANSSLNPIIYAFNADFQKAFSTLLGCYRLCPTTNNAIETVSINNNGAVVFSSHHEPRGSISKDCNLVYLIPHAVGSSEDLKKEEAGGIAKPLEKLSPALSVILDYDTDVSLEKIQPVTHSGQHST
Description: In vitro binding affinity against Dopamine receptor D1 in rat striatal tissue

Rattus norvegicus [4] = species: Rattus norvegicus; assay: animal or person; conditions: sc, read-out: Inhibition
Rattus norvegicus [5] = species: Rattus norvegicus; assay: animal or person; conditions: sc
Rattus norvegicus [6] = assay: In vivo inhibition of apomorphine-mediated stereotypy in rats administered subcutaneously at 20 mg/kg expressed as ED50 (mg/kg); format: functional; conditions: sc, route subcutaneous
Rattus norvegicus [7] = species: Rattus norvegicus; assay: animal or person; conditions: sc, read-out: Inhibition; remark: listed apart in the source
Rattus norvegicus [8] = assay: In vivo inhibition of apomorphine-mediated stereotypy in rats administered subcutaneously at 10 mg/kg expressed as percent inhibition; format: functional; conditions: sc, route subcutaneous
Rattus norvegicus [9] = assay: In vivo inhibition of apomorphine-mediated stereotypy in rats administered subcutaneously at 20 mg/kg expressed as ED50 (mg/kg); Onactive; format: functional, organism-based; set-up: dose 20 mg/kg
Rattus norvegicus [10] = assay: In vivo inhibition of apomorphine-mediated stereotypy in rats administered subcutaneously at 20 mg/kg expressed as ED50 (mg/kg); Inactive; format: functional, organism-based; set-up: dose 20 mg/kg

Structure (SMILES) | Ki [2] [nM] | Ki [3] [nM] | Ki (D(1A) dopamine receptor) [nM] | inhibition in vivo at 20 mg/kg (Rattus norvegicus [4]) [%] | also measured
CN1CCN(C2=Nc3cccnc3Nc3ccc(F)cc32)CC1 | 124 | 415 | 677 | – | inhibition in vivo at 20 mg/kg (Rattus norvegicus [1]): 55%
CN1CCN(C2=Nc3cccnc3N(C)c3ccccc32)CC1 | 2900 | 175 | 6020 | 0 | –
CN1CCN(C2=Nc3cccnc3Nc3ccccc32)CC1 | 124 | 665 | 2400 | 0 | –
CN1CCN(C2=Nc3ccccc3N(C=O)c3ccncc32)CC1 | 2053 | 3450 | 3020 | 0 | –
CN1CCN(C2=Nc3ccccc3Sc3ccc(Cl)cc32)CC1 [CLOTHIAPINE] | 0.6 | 136 | 14 | 100 | ED50 (Rattus norvegicus [5]): 0.72 mg/kg
Cc1cnc2c(c1)N=C(N1CCN(C)CC1)c1ccccc1N2 | 103 | 523 | 1140 | – | –
CN1CCN(C2=Nc3ccccc3N(C=O)c3ncccc32)CC1 | 7120 | 3415 | 30200 | 0 | –
CN1CCN(C2=Nc3ccccc3Nc3ccncc32)CC1 | 29 | 3260 | 302 | 45 | –
O=C(CCCN1CCC(O)(c2ccc(Cl)cc2)CC1)c1ccc(F)cc1 [HALOPERIDOL] | – | – | – | – | ED50 (Rattus norvegicus [6]): 0.14 mg/kg; inhibition in vivo at 0.6 mg/kg (Rattus norvegicus [7]): 100%
CN1CCN(C2=Nc3ccccc3Nc3ccc(Cl)cc32)CC1 [ISOCLOZAPINE] | – | 21 | 28 | – | ED50 (Rattus norvegicus [5]): 1.7 mg/kg
CN1CCN(C2=Nc3ccccc3Nc3ncccc32)CC1 | 103 | 303 | 726 | 0 | –
CN1CCN(C2=Nc3cnccc3Nc3ccccc32)CC1 | 837 | 430 | 13500 | – | –
CN1CCN(C2=Nc3cccnc3Nc3cc(Cl)ccc32)CC1 | 48 | 366 | 214 | 70 | –
Cc1ccc2c(c1)C(N1CCN(C)CC1)=Nc1cccnc1N2 | 94 | 48 | 398 | 75 | –
CN1CCN(C2=Nc3cccnc3Nc3ccc(Cl)cc32)CC1 | 6.2 | 65 | 2140 | – | inhibition in vivo at 10 mg/kg (Rattus norvegicus [8]): 75%
CN1CCN(C2=Nc3cc(Cl)ccc3Sc3ccccc32)CC1 [ISOCLOTHIAPINE] | 4.1 | 5.6 | 240 | – | ED50 (Rattus norvegicus [9]): inactive
CN1CCN(C2=Nc3cc(Cl)ccc3Nc3ccccc32)CC1 [CLOZAPINE] | – | – | – | 0 | ED50 (Rattus norvegicus [10]): inactive
CN1CCN(C2=Nc3cc(F)ccc3Cc3ccccc32)CC1 [FLUPERLAPINE] | 3.8 | 25 | 141 | – | –
CN1CCN(C2=Nc3cccnc3N(C=O)c3ccccc32)CC1 | 1870 | 311 | 47900 | 0 | –
